Laboratory results reported in patent US20050267156A1, “Broadspectrum 2-amino-benzothiazole sulfonamide hiv protease inhibitors” (Tibotec Pharmaceuticals Ltd., priority 2002, published 2005).
Read-outs that look alike come from different tables or passages of the source.

How the values were obtained:
Pharmacokinetics in rats = type: in vivo, Whistar rats; settings: rat
Procedure: (§1) The pharmacokinetic properties of some compounds of formula (I) were tested on rats and dogs. The compounds were evaluated in Whistar rats, source Iffa Credo, weighing approximately 350 g. Before dosing the animals were fasted overnight (approximately 12 h fasting period). The compounds were dissolved in DMSO or PEG 400. The results represented in the table concern the results from the oral or intra-peritoneal dosing of the compounds. Blood was sampled at 30 min, 1 h, 2 h, 3 h, no pre-dose sample was taken. The amount of the compound in the biological sample was determined using LC-MS. In the table below “or” means oral dosing, “ip” means intraperitoneal dosing, “mpk” means mg per kilogram.

Pharmacokinetics in dogs = type: in vivo; settings: or, dog
Procedure: as §1

HIV-1 strain LAI = assay: Cellular anti-HIV assay (MT4/MTT), wild type; type: cell-based; settings: wild type HIV-1 strain LAI, MT4 cells; for EC50: Human immunodeficiency virus 1, read-out: WT (pEC50) (converted)
mock-infected MT4 cells = assay: Toxicity on mock-infected cells (MTT); type: cell-based
mutant HIV strain C = assay: microbe, parasite or virus in culture; type: cell-based; settings: for fold resistance Strain C: FR=EC50 (mutant strain)/EC50 (HIV-1 strain LAI); for pEC50 Strain C: mutant HIV strain C, MT4 cells; for EC50: Human immunodeficiency virus 1, MT4, read-out: pEC50 Strain C, mutant HIV strain C, MT4 cells (converted)
mutant HIV strain E = assay: microbe, parasite or virus in culture; type: cell-based; settings: for fold resistance Strain E: FR=EC50 (mutant strain)/EC50 (HIV-1 strain LAI); for pEC50 Strain E: mutant HIV strain E, MT4 cells; for EC50: Human immunodeficiency virus 1, MT4, read-out: pEC50 Strain E, mutant HIV strain E, MT4 cells (converted)
mutant HIV strain D = assay: microbe, parasite or virus in culture; type: cell-based; settings: for fold resistance Strain D: FR=EC50 (mutant strain)/EC50 (HIV-1 strain LAI); for pEC50 Strain D: mutant HIV strain D, MT4 cells; for EC50: Human immunodeficiency virus 1, MT4, read-out: pEC50 Strain D, mutant HIV strain D, MT4 cells (converted)
mutant HIV strain F = assay: microbe, parasite or virus in culture; type: cell-based; settings: for fold resistance Strain F: FR=EC50 (mutant strain)/EC50 (HIV-1 strain LAI); for pEC50 Strain F: mutant HIV strain F, MT4 cells
mutant HIV strain A = assay: microbe, parasite or virus in culture; type: cell-based; settings: for fold resistance Strain A: FR=EC50 (mutant strain)/EC50 (HIV-1 strain LAI); for pEC50 Strain A: mutant HIV strain A, MT4 cells; for EC50: Human immunodeficiency virus 1, MT4, read-out: pEC50 Strain A, mutant HIV strain A, MT4 cells (converted)
mutant HIV strain B = assay: microbe, parasite or virus in culture; type: cell-based; settings: for fold resistance Strain B: FR=EC50 (mutant strain)/EC50 (HIV-1 strain LAI); for pEC50 Strain B: mutant HIV strain B, MT4 cells
[1] = Toxicity on mock-infected cells (MTT); type: cell-based; settings: human
[2] = tested on: mutant HIV protease viruses; assay: Panel of more than 20 mutant proteases; type: cell-based
[3] = ip, DMSO, results normalized to 10 mpk
[4] = or, PEG400, results normalized to 10 mpk

Row | Compound | Cmax (Pharmacokinetics in rats; [3]) [ng/mL] | Cmax (Pharmacokinetics in rats; [4]) [ng/mL] | WT (pEC50) (HIV-1 strain LAI) | fold resistance Strain C (mutant HIV strain C) | pEC50 Strain C (mutant HIV strain C) | fold resistance Strain E (mutant HIV strain E) | pEC50 Strain E (mutant HIV strain E) | fold resistance Strain D (mutant HIV strain D) | pEC50 Strain D (mutant HIV strain D) | fold resistance Strain F (mutant HIV strain F) | pEC50 Strain F (mutant HIV strain F) | fold resistance Strain A (mutant HIV strain A) | pEC50 Strain A (mutant HIV strain A) | fold resistance Strain B (mutant HIV strain B) | pEC50 Strain B (mutant HIV strain B) | EC50 (HIV-1 strain LAI) [nM] | CC50 at 5 days [1] [µM] | EC50 (mutant HIV strain C) [nM] | EC50 (mutant HIV strain E) [nM] | EC50 (mutant HIV strain D) [nM] | other results
1 | CNc1nc2ccc(S(=O)(=O)N(CC(C)C)C[C@@H](O)[C@H](Cc3ccccc3)NC(=O)O[C@H]3CCOC3)cc2s1 [Compound 21, {(1S,2R)-1-benzyl-2-hydroxy-3-[isobutyl-(2-methylamino-benzothiazole-6-sulfonyl)-amino]-propyl}-carbamic acid(S)(tetrahydro-furan-3-yl)ester] | 1763 | 1315 | – | – | – | – | – | – | – | – | – | – | – | – | – | – | – | – | – | – | Cmax (Pharmacokinetics in rats; or, DMSO, results normalized to 10 mpk): 1139 ng/mL; Cmax (Pharmacokinetics in dogs; PEG400 - 2 animals, results normalized to 10 mpk): 61 ng/mL; Cmax (Pharmacokinetics in dogs; PEG400 - 4 animals, results normalized to 10 mpk): 184 ng/mL
2 | {(1S,2R)-3-[(2-amino-benzothiazole-6-sulfonyl)-isobutyl-amino]-1-benzyl-2-hydroxypropyl}-carbamic acid(3R,3aS,6aR)-hexahydro-furo[2,3-b]furan-3-yl ester [Compound 2] | 427 | 52 | 8.18 | 0.4 | 8.54 | 0.5 | 8.50 | 0.3 | 8.69 | 0.5 | 8.45 | 0.3 | 8.68 | 0.4 | 8.59 | – | – | – | – | – | Tox (pCC50) (mock-infected MT4 cells; mock-infected MT4 cells, pCC50): 4.07
3 | CNc1nc2ccc(S(=O)(=O)N(CC(C)C)C[C@@H](O)[C@H](Cc3ccccc3)NC(=O)O[C@H]3CCOC3)cc2s1.O=C(O)C(F)(F)F [Compound 22, {(1S,2R)-1-benzyl-2-hydroxy-3-[isobutyl-(2-methylamino-benzothiazole-6-sulfonyl)-amino]-propyl}-carbamic acid(S)(tetrahydro-furan-3-yl)ester trifluoroacetate] | – | – | 8.84 | 4.5 | 8.19 | 3.0 | 8.36 | 11.5 | 7.78 | 549.5 | 6.1 | 81.3 | 6.93 | 10.2 | 7.83 | – | – | – | – | – | Tox (pCC50) (mock-infected MT4 cells): <4
4 | CNc1nc2ccc(S(=O)(=O)N(CC(C)C)C[C@@H](O)[C@H](Cc3ccccc3)NC(=O)OCc3cncs3)cc2s1 [Compound 18, {(1S,2R)-1-benzyl-2-hydroxy-3-[isobutyl-(2-methylamino-benzothiazole-6-sulfonyl)-amino]-propyl}-carbamic acid thiazol-5-ylmethyl ester] | – | – | – | – | – | – | – | – | – | – | – | – | – | – | 8.21 | 1.91 | 85.1 | 7.41 | 9.12 | 21.4 | Cmax (Pharmacokinetics in rats; Whistar, blood, ip, 10 mpk, ip, DMSO, results normalized to 10 mpk, read-out: Cmax): 1140 ng/mL; Cmax (Pharmacokinetics in rats; Whistar, blood, po, 10 mpk, or, DMSO, results normalized to 10 mpk, read-out: Cmax): 396 ng/mL; Cmax (Pharmacokinetics in rats; Whistar, blood, po, 10 mpk, or, PEG400, results normalized to 10 mpk, read-out: Cmax): 668 ng/mL; Cmax (Pharmacokinetics in dogs; blood, po, 10 mpk, DMSO, results normalized to 10 mpk, read-out: Cmax): 15 ng/mL; Cmax (Pharmacokinetics in dogs; blood, po, 10 mpk, PEG400, results normalized to 10 mpk, read-out: Cmax): 42 ng/mL; EC50 (mutant HIV strain F; Human immunodeficiency virus 1, MT4, read-out: pEC50 Strain F, mutant HIV strain F, MT4 cells (converted)): 148 nM; EC50 (mutant HIV strain A): 30.9 nM
5 | CC(C)CN(C[C@@H](O)[C@H](Cc1ccccc1)NC(=O)OC1COC2OCCC12)S(=O)(=O)c1ccc2nc(N)sc2c1 (stereo partly drawn) [Compound 1, {(1S,2R)-3-[(2-amino-benzothiazole-6-sulfonyl)-isobutyl-amino]-1-benzyl-2-hydroxypropyl}-carbamic acid hexahydro-furo[2,3-b]furan-3-yl ester] | – | – | – | 0.8 | – | 0.6 | – | 0.4 | – | – | – | 0.5 | – | 0.7 | – | 5.5 | 69.2 | 4.17 | 3.09 | 2.24 | IC50 ([2]; Human immunodeficiency virus 1, read-out: pIC50 for the most resistant mutant (converted)): 7.59 nM; IC50 ([2]; Human immunodeficiency virus 1, read-out: pIC50 for the most sensitive mutant (converted)): 0.741 nM; EC50 (mutant HIV strain A): 2.95 nM; EC50 (mutant HIV strain B; Human immunodeficiency virus 1, MT4, read-out: pEC50 Strain B, mutant HIV strain B, MT4 cells (converted)): 3.63 nM
